Measured values taken from ChEMBL document CHEMBL5303573, “Mapping human microbiome drug metabolism by gut bacteria and their genes” (Nature, 2019).

Tests used:
[1] = The drug is tested on Coprococcus comes strain: ATCC27758 for biotransformation. The drug concentrations were measured before and after a 12-h incubation by liquid-chromatography-coupled mass spectrometry (LC–MS); format: ADME; set-up: dose 2 uM, timepoint 0 vs 12 hours; conditions: 2 µM
[2] = The drug is tested on Bifidobacterium longum subsp. Infantis strain: CCUG52486 for biotransformation. The drug concentrations were measured before and after a 12-h incubation by liquid-chromatography-coupled mass spectrometry (LC–MS); conditions: 2 µM
[3] = The drug is tested on Bifidobacterium ruminantium strain: fecal isolate for biotransformation. The drug concentrations were measured before and after a 12-h incubation by liquid-chromatography-coupled mass spectrometry (LC–MS); conditions: 2 µM
[4] = anaerostipes sp., 12 h, 2 µM
Description: The drug is tested on Anaerostipes sp. strain: fecal isolate for biotransformation. The drug concentrations were measured before and after a 12-h incubation by liquid-chromatography-coupled mass spectrometry (LC–MS)

[5] = The drug is tested on Providencia stuartii strain: ATCC25827 for biotransformation. The drug concentrations were measured before and after a 12-h incubation by liquid-chromatography-coupled mass spectrometry (LC–MS); conditions: 2 µM
[6] = The drug is tested on Anaerotruncus colihominis strain: DSM17241 for biotransformation. The drug concentrations were measured before and after a 12-h incubation by liquid-chromatography-coupled mass spectrometry (LC–MS); conditions: 2 µM
[7] = The drug is tested on Collinsella intestinalis strain: DSM13280 for biotransformation. The drug concentrations were measured before and after a 12-h incubation by liquid-chromatography-coupled mass spectrometry (LC–MS); conditions: 2 µM
[8] = The drug is tested on Clostridium sporogenes strain: ATCC15579 for biotransformation. The drug concentrations were measured before and after a 12-h incubation by liquid-chromatography-coupled mass spectrometry (LC–MS); conditions: 2 µM
[9] = The drug is tested on Bacteroides ovatus strain: ATCC8483 for biotransformation. The drug concentrations were measured before and after a 12-h incubation by liquid-chromatography-coupled mass spectrometry (LC–MS); conditions: 2 µM
[10] = The drug is tested on Ruminococcus torques strain: ATCC27756 for biotransformation. The drug concentrations were measured before and after a 12-h incubation by liquid-chromatography-coupled mass spectrometry (LC–MS); format: ADME; set-up: dose 2 uM, timepoint 0 vs 12 hours; conditions: 2 µM
[11] = The drug is tested on Bacteroides finegoldii strain: DSM17565 for biotransformation. The drug concentrations were measured before and after a 12-h incubation by liquid-chromatography-coupled mass spectrometry (LC–MS); conditions: 2 µM
[12] = The drug is tested on Bacteroides caccae strain: ATCC43185 for biotransformation. The drug concentrations were measured before and after a 12-h incubation by liquid-chromatography-coupled mass spectrometry (LC–MS); conditions: 2 µM
[13] = The drug is tested on Anaerococcus hydrogenalis strain: DSM7454 for biotransformation. The drug concentrations were measured before and after a 12-h incubation by liquid-chromatography-coupled mass spectrometry (LC–MS); conditions: 2 µM
[14] = enterocloster bolteae, 12 h, 2 µM
Description: The drug is tested on Clostridium bolteae strain: ATCCBAA-613 for biotransformation. The drug concentrations were measured before and after a 12-h incubation by liquid-chromatography-coupled mass spectrometry (LC–MS)

[15] = bacteroides thetaiotaomicron, 12 h, 2 µM
Description: The drug is tested on Bacteroides thetaiotaomicron strain: 3731 for biotransformation. The drug concentrations were measured before and after a 12-h incubation by liquid-chromatography-coupled mass spectrometry (LC–MS)

[16] = The drug is tested on Escherichia coli strain: BW25113 for biotransformation. The drug concentrations were measured before and after a 12-h incubation by liquid-chromatography-coupled mass spectrometry (LC–MS); conditions: 2 µM
[17] = The drug is tested on Enterobacter cancerogenus strain: ATCC35316 for biotransformation. The drug concentrations were measured before and after a 12-h incubation by liquid-chromatography-coupled mass spectrometry (LC–MS); conditions: 2 µM
[18] = parabacteroides johnsonii, 12 h, 2 µM
Description: The drug is tested on Parabacteroides johnsonii strain: DSM18315 for biotransformation. The drug concentrations were measured before and after a 12-h incubation by liquid-chromatography-coupled mass spectrometry (LC–MS)

[19] = The drug is tested on Ruminococcus gnavus strain: ATCC29149 for biotransformation. The drug concentrations were measured before and after a 12-h incubation by liquid-chromatography-coupled mass spectrometry (LC–MS); conditions: mediterraneibacter gnavus, 2 µM
[20] = The drug is tested on Subdoligranulum variabile strain: DSM15176 for biotransformation. The drug concentrations were measured before and after a 12-h incubation by liquid-chromatography-coupled mass spectrometry (LC–MS); conditions: 2 µM
[21] = The drug is tested on Ruminococcus lactaris strain: ATCC29176 for biotransformation. The drug concentrations were measured before and after a 12-h incubation by liquid-chromatography-coupled mass spectrometry (LC–MS); conditions: 2 µM
[22] = The drug is tested on Clostridium symbiosum strain: ATCC14940 for biotransformation. The drug concentrations were measured before and after a 12-h incubation by liquid-chromatography-coupled mass spectrometry (LC–MS); conditions: 2 µM
[23] = The drug is tested on Eubacterium hallii strain: DSM3353 for biotransformation. The drug concentrations were measured before and after a 12-h incubation by liquid-chromatography-coupled mass spectrometry (LC–MS); conditions: anaerobutyricum hallii, 2 µM
[24] = The drug is tested on Bacteroides sp. WH2 strain: WH2 for biotransformation. The drug concentrations were measured before and after a 12-h incubation by liquid-chromatography-coupled mass spectrometry (LC–MS); conditions: bacteroides sp. wh2, 12 h, 2 µM
[25] = The drug is tested on Eubacterium rectale strain: ATCC33656 for biotransformation. The drug concentrations were measured before and after a 12-h incubation by liquid-chromatography-coupled mass spectrometry (LC–MS); conditions: agathobacter rectalis, 2 µM
[26] = bacteroides intestinalis, 12 h, 2 µM
Description: The drug is tested on Bacteroides intestinalis strain: DSM17393 for biotransformation. The drug concentrations were measured before and after a 12-h incubation by liquid-chromatography-coupled mass spectrometry (LC–MS)

[27] = The drug is tested on Odoribacter splanchnicus strain: fecal isolate for biotransformation. The drug concentrations were measured before and after a 12-h incubation by liquid-chromatography-coupled mass spectrometry (LC–MS); conditions: 2 µM
[28] = limosilactobacillus reuteri cf48-3a, 12 h, 2 µM
Description: The drug is tested on Lactobacillus reuteri CF48-3A strain: BEI HM-102 for biotransformation. The drug concentrations were measured before and after a 12-h incubation by liquid-chromatography-coupled mass spectrometry (LC–MS)

[29] = akkermansia muciniphila, 12 h, 2 µM
Description: The drug is tested on Akkermansia muciniphila strain: ATCC BAA-835 for biotransformation. The drug concentrations were measured before and after a 12-h incubation by liquid-chromatography-coupled mass spectrometry (LC–MS)

[30] = The drug is tested on Eubacterium ventriosum strain: ATCC27560 for biotransformation. The drug concentrations were measured before and after a 12-h incubation by liquid-chromatography-coupled mass spectrometry (LC–MS); format: ADME; set-up: dose 2 uM, timepoint 0 vs 12 hours; conditions: 2 µM
[31] = The drug is tested on Dorea formicigenerans strain: ATCC27755 for biotransformation. The drug concentrations were measured before and after a 12-h incubation by liquid-chromatography-coupled mass spectrometry (LC–MS); conditions: 2 µM
[32] = The drug is tested on Providencia rettgeri strain: DSM1131 for biotransformation. The drug concentrations were measured before and after a 12-h incubation by liquid-chromatography-coupled mass spectrometry (LC–MS); format: ADME; set-up: dose 2 uM, timepoint 0 vs 12 hours; conditions: 2 µM

## CCCCCOC(=O)Nc1nc(=O)n([C@@H]2O[C@H](C)[C@@H](O)[C@H]2O)cc1F [CAPECITABINE]
[1]
  Bacterial Biotransformation: Compound NOT metabolized
[2]
  Bacterial Biotransformation: Compound metabolized
[3]
  Bacterial Biotransformation: Compound NOT metabolized
[4]
  Bacterial Biotransformation: Compound NOT metabolized
[5]
  Bacterial Biotransformation: Compound NOT metabolized
[6]
  Bacterial Biotransformation: Compound NOT metabolized
[7]
  Bacterial Biotransformation: Compound NOT metabolized
[8]
  Bacterial Biotransformation: Compound NOT metabolized
[9]
  Bacterial Biotransformation: Compound NOT metabolized
[10]
  Bacterial Biotransformation: Compound NOT metabolized
[11]
  Bacterial Biotransformation: Compound NOT metabolized
[12]
  Bacterial Biotransformation: Compound NOT metabolized
[13]
  Bacterial Biotransformation: Compound NOT metabolized
[14]
  Bacterial Biotransformation: Compound NOT metabolized
[15]
  Bacterial Biotransformation: Compound NOT metabolized
[16]
  Bacterial Biotransformation: Compound metabolized
[17]
  Bacterial Biotransformation: Compound metabolized
[18]
  Bacterial Biotransformation: Compound NOT metabolized
[19]
  Bacterial Biotransformation: Compound NOT metabolized
[20]
  Bacterial Biotransformation: Compound NOT metabolized
[21]
  Bacterial Biotransformation: Compound NOT metabolized
[22]
  Bacterial Biotransformation: Compound NOT metabolized
[23]
  Bacterial Biotransformation: Compound NOT metabolized
[24]
  Bacterial Biotransformation: Compound NOT metabolized
[25]
  Bacterial Biotransformation: Compound metabolized
[26]
  Bacterial Biotransformation: Compound NOT metabolized
[27]
  Bacterial Biotransformation: Compound metabolized
[28]
  Bacterial Biotransformation: Compound metabolized
[29]
  Bacterial Biotransformation: Compound NOT metabolized
[30]
  Bacterial Biotransformation: Compound NOT metabolized
[31]
  Bacterial Biotransformation: Compound NOT metabolized
[32]
  Bacterial Biotransformation: Compound NOT metabolized
